Test results: patent US6936629B2, “Compounds and methods for the treatment or prevention of flavivirus infections” (ViroChem Pharma Inc., priority 2001, dated 2005)

Biological target: HCV RNA-dependent RNA polymerase (NS5B protein) (Hepatitis C virus genotype 1b, UniProt P26663)
Test: In vitro HCV RNA-dependent RNA polymerase assay (Assay 1, polyA/oligo dT, 32P-UTP incorporation)
Type: biochemical
Settings: purified recombinant HCV NS5B, homopolymeric template/primer polyA/oligo dT; read-out: RNA pol Assay1 IC50
Description: Compounds were evaluated using an in vitro polymerase assay containing purified recombinant HCV RNA-dependent RNA polymerase (NS5B protein). HCV NS5B was expressed in insect cells using a recombinant baculovirus as vector. The experimental procedures used for the cloning, expression and purification of the HCV NS5B protein are described below. Follows, are details of the RNA-dependent RNA polymerase assays used to test the compounds.
The cDNA encoding the entire NS5B protein of HCV-Bk strain, genotype 1b, was amplified by PCR using the primers NS5Nhe5′ (5′-[…]-3′) (SEQ ID NO: 1) and XhoNS53′ (5′-[…]-3′) (SEQ ID NO: 2) and the plasmid pCD 3.8-9.4 as template (Tomei et al, 1993). NS5Nhe5′ and XhoNS53′ contain two NheI and XhoI sites (underlined sequences), respectively, at their 5′ end. The amplified DNA fragment was cloned in the bacterial expression plasmid pET-21b (Novagen) between the restriction sites NheI and XhoI, to generate the plasmid pET/NS5B. This plasmid was later used as template to […] the NS5B coding region, using the primers NS5B-H9 (5′-[…]-3′) (SEQ ID NO: 3) and NS5B-R4 (5′-[…]-3′) (SEQ ID NO: 4). NS5B-H9 spans a region of 15 nucleotides in the plasmid pET-21b followed by the translation initiation codon (ATG) and […] corresponding to the 5′ end of the NS5B coding region (nt. 7590-7607 in the HCV sequence with the accession number M58335) . NS5B-R4 contains two BamHI sites (underlined) followed by 18 nucleotides corresponding to the region around the stop codon in the HCV genome (nt. 9365-9347). The amplified sequence, of 1.8 kb, was digested with NheI and BamHI and ligated to a predigested pBlueBacII plasmid (Invitrogen) . The resulting recombinant plasmid was designated pBac/NS5B. Sf9 cells were co-transfected with 3 μg of pBac/NS5B, together with 1 μg of linearized baculovirus DNA (Invitrogen), as described in the manufacturer's protocol. Following two rounds of plaque purification, an NS5B-recombinant baculovirus, BacNS5B, was isolated. The presence of the recombinant NS5B protein was determined by western blot analysis (Harlow and Lane, 1988) of BacNS5B-infected Sf9 cells, using a rabbit polyclonal antiserum (anti-NS5B) raised against a His-tagged version of the NS5B protein expressed in E. coil. Infections of Sf9 cells with this plaque purified virus were performed in one-liter spinner flasks at a cell density of 1.2×10^6 cells/ml and a multiplicity of infection of 5.
Sf9 cells were infected as described above. Sixty hours post-infection, cells were harvested then washed twice with phosphate buffer saline (PBS). Total proteins were solubilized as described in Lohmann et al. (1997) with some modifications. In brief, proteins were extracted in three steps, S1, S2, S3, using lysis buffers (LB) I, LB II and LB III (Lohmann et al, 1997). The composition of LBII was modified to contain 0.1% triton X-100 and 150 mM NaCl to reduce the amount of solubilized NS5B protein at this step. In addition, sonication of cell extracts was avoided throughout the protocol to preserve the integrity of the protein structure.
Soluble NS5B protein in the S3 fraction was diluted to lower the NaCl concentration to 300 mM, then it incubated batchwise with DEAE sepharose beads (Amersham-Pharmacia) for 2 hrs at 4° C., as described by Behrens et al. (1996). Unbound material was cleared by centrifugation for 15 min at 4° C., at 25000 rpm using a SW41 rotor (Beckman). The supernatant was further diluted to lower the NaCl concentration to 200 mM and subsequently loaded, with a flow rate of 1 ml/min, on a 5 ml HiTrap® heparin column (Amersham-Pharmacia) connected to an FPLC® system (Amersham-Pharmacia). Bound proteins were eluted in 1 ml fractions, using a continuous NaCl gradient of 0.2 to 1 M, over a 25 ml volume. […]

Sequence of HCV RNA-dependent RNA polymerase (NS5B protein) (P26663 2420-3010 limits assumed): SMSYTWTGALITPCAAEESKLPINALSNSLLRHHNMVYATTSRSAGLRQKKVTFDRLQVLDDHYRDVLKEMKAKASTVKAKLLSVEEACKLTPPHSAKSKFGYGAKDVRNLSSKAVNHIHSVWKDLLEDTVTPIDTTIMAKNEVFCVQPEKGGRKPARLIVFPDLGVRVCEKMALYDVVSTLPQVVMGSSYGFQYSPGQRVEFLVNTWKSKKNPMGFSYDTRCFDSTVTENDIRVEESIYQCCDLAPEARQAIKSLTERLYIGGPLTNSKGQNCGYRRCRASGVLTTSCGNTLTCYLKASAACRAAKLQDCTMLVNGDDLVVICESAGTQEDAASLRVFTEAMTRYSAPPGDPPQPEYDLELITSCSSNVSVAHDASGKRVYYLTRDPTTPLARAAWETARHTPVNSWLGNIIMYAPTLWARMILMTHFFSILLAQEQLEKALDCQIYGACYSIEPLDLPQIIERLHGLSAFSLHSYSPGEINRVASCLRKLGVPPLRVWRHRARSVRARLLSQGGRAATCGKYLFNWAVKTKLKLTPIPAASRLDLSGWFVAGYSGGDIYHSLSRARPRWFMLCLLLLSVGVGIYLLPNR

SMILES | IC50 [µM]
O=C(Nc1nc(-c2ccccc2)sc1C(=O)O)c1ccc(Cl)cc1 [Compound #7, 4-(4-Chloro-benzoylamino)-2-phenyl-thiazole-5-carboxylic acid] | > 20
Cc1ccc(S(=O)(=O)Nc2nc(-c3ccccc3)sc2C(=O)O)c(C)c1 [Compound #9, 4-(2,4-Dimethyl-benzenesulfonylamino)-2-phenyl-thiazole-5-carboxylic acid] | 5 to 20
Cc1ccc(C(=O)N(C)c2nc(N3CCOCC3)sc2C(=O)O)c(C)c1 [Compound #16, 4-[(2,4-DIMETHYL-BENZOYL)-METHYL-AMINO]-2-MORPHOLIN-4-YL-THIAZOLE-5-CARBOXYLIC ACID] | 5 to 20
Cc1ccccc1S(=O)(=O)Nc1nc(-c2ccccc2)sc1C(=O)O [Compound #5, 2-Phenyl-4-(toluene-2-sulfonylamino)-thiazole-5-carboxylic acid] | 5 to 20
Cc1cccc(C(=O)Nc2nc(-c3ccccc3)sc2C(=O)O)c1 [Compound #12, 4-(3-Methyl-benzoylamino)-2-phenyl-thiazole-5-carboxylic acid] | > 20
O=C(Nc1nc(-c2ccccc2)sc1C(=O)O)c1ccc(Cl)cc1Cl [Compound #11, 4-(2,4-Dichloro-benzoylamino)-2-phenyl-thiazole-5-carboxylic acid] | 5 to 20
CCN(C(=O)c1ccc(Cl)cc1Cl)c1nc(-c2ccccc2)sc1C(=O)O [Compound #4, 4-[(2,4-Dichloro-benzoyl)-ethyl-amino]-2-phenyl-thiazole-5-carboxylic acid] | < 5
CC(C)N(C(=O)c1ccc(Cl)cc1Cl)c1nc(-c2ccccc2)sc1C(=O)O [Compound #3, 4-[(2,4-Dichloro-benzoyl)-isopropyl-amino]-2-phenyl-thiazole-5-carboxylic acid] | < 5
Cc1ccc(C(=O)Nc2nc(-c3ccccc3)sc2C(=O)O)c(C)c1 [Compound #8, 4-(2,4-Dimethyl-benzoylamino)-2-phenyl-thiazole-5-carboxylic acid] | > 20

Further lines, results first:

IC50 [µM] | SMILES
< 5 | Cc1ccc(C(=O)N(c2nc(-c3ccccc3)sc2C(=O)O)C(C)C)cc1 [Compound #6, 4-[Isopropyl-(4-methyl-benzoyl)-amino]-2-phenyl-thiazole-5-carboxylic acid]
5 to 20 | CN(C(=O)c1ccccc1Cl)c1nc(-c2ccccc2)sc1C(=O)O [Compound #13, 4-[(2-Chloro-benzoyl)-methyl-amino]-2-phenyl-thiazole-5-carboxylic acid]
< 5 | Cc1ccc(C(=O)N(C)c2nc(-c3ccccc3)sc2C(=O)O)cc1 [Compound #1, 4-[Methyl-(4-methyl-benzoyl)-amino]-2-phenyl-thiazole-5-carboxylic acid]
5 to 20 | O=C(Nc1nc(-c2ccccc2)sc1C(=O)O)c1ccc(Cl)cc1 [Compound #15]
< 5 | CN(C(=O)c1ccc(Cl)cc1Cl)c1nc(-c2ccccc2)sc1C(=O)O [Compound #2, 4-[(2,4-Dichloro-benzoyl)-methyl-amino]-2-phenyl-thiazole-5-carboxylic acid]
> 20 | Cc1ccc(S(=O)(=O)Nc2nc(-c3ccccc3)sc2C(=O)O)cc1 [Compound #10, 2-Phenyl-4-(toluene-4-sulfonylamino)-thiazole-5-carboxylic acid]
< 5 | CN(C(=O)c1ccc(Cl)cc1)c1nc(-c2ccccc2)sc1C(=O)O [Compound #14, 4-[(4-Chloro-benzoyl)-methyl-amino]-2-phenyl-thiazole-5-carboxylic acid]
